Read-outs that look alike come from different tables or passages of the source.
Experiments:
WI-38 cells [1] = test: Propidium iodide (PI) cell-death imaging upon H2O2 stress; assay type: cell-based, human; details: for Assay 7: H2O2-resistant, at 10 uM, validated by propidium iodide (PI) cell-death imaging: w/H2O2, 3 hrs/4 hrs/5 hrs, YES/NO; for cytotoxicity at 10 µM: Homo sapiens, WI-38
WI-38 cells [2] = test: MMS resistance assay; assay type: cell-based, human; details: for fold induction at 10 µM: Homo sapiens, 12 h, normalized ATP measurement
Summary of the method: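 WI-38 cells were given compounds at five final concentrations (0.25–20 μM) in triplicate, followed by cadmium or MMS for 12 h. For MMS, medium was switched from OptiMEM+10% FBS to serum-free DMEM+2% BSA when compounds were added, 24 h before stressor. Two independent assays were run, analysed by global variance t-test.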

mTOR = mTOR inhibition (RPS6 phosphorylation status), In-Cell Western; assay type: cell-based, human
Summary of the method: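 WI-38 cells exposed to compounds at 5, 10 and 20 μM for 24 hrs. Fixed cells co-stained overnight at 4° C with anti-RPS and anti-pRPS6 (Ser-235/236) antibodies, then DyLight 680/800 secondaries. Phospho-RPS6 relative to total RPS6 read by near-infrared In-Cell Western imaging.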

WI-38 cells [3] = test: Long-term effects on cell viability (5 days, ATP; morphology, PI imaging); assay type: cell-based; details: 10 μM; for Luminescence signal for ATP measurement, day-1 Average / Luminescence signal for ATP measurement, day-2 Average / Luminescence signal for ATP measurement, day-3 Average / Luminescence signal for ATP measurement, day-4 Average / Luminescence signal for ATP measurement, day-5 Average: n = 6; for viability at 10 µM: Homo sapiens, WI-38, 120 h, DMSO ctrl = 100.0%, read-out: ATP luminescence by day-5 normalized; for Luminescence signal for ATP measurement, day-5 Average / viability at 10 µM: day-5;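 on Luminescence signal for ATP measurement, day-2 Average: compounds at 10 µM with ATP read daily over 5 days of treatment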;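 on Luminescence signal for ATP measurement, day-3 Average: compounds at 10 µM with ATP read daily over 5 days of treatment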;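 on Luminescence signal for ATP measurement, day-4 Average: compounds at 10 µM with ATP read daily over 5 days of treatment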;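 on Luminescence signal for ATP measurement, day-5 Average: compounds at 10 µM with ATP read daily over 5 days of treatment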
WI-38 cells [4] = details: for Percentage of propidium iodide-positive dead cells (no H2O2 stress treatment), at 10 uM: negative control 0.41% ± 0.23%
Description: WI-38 cells were seeded on 384-well plates for 24 hrs and then incubated with small molecules for 24 hrs. […] Images were collected on an INCell Analyzer 2000 (GE) and analyzed with the Developer software.

WI-38 cells [5] = details: for Assay 1: H2O2-resistant: YES/NO, if NO, possibly due to repeated freezing/thawing of stocks; for No H2O2 stress treatment, at 10 uM (fold change): normalized ATP measurement
[6] = pre-treatment at 10 uM, 3.5 hours of H2O2, DMSO control 27.4% ± 6.5%, */**/*** = reduced by one/two/three standard deviations, read-out: Percentage of propidium iodide-positive dead cells (under H2O2 stress treatment), at 10 uM
[7] = Exp. 1, WI-38 cells, read-out: Exp. 1, under MMS stress treatment, at 10 uM (fold change)
[8] = Exp. 2, WI-38 cells, read-out: Exp. 2, under MMS stress treatment, at 10 uM (fold change)
[9] = score in summary of 38 core set hits
[10] = Batch 1, day-0 luminescence = 320956 ± 24708
[11] = WI-38 cells, 10 μM, (*) = compromised ability to protect cells from H2O2, could be due to stability issue
[12] = asterisks indicate the loss of the ability to protect cells from H2O2 over time
[13] = derived from dose response curves, 0.6-20 uM, H2O2-resistance of WI-38 cells
[14] = read-out: Est. ED50, dose response 0.6-20 μM, H2O2-resistance
[15] = H2O2 3 hrs, 10 uM, n = 6, negative control 5.44% ± 0.79%, read-out: Percentage of propidium iodide-positive dead cells (under H2O2 stress treatment), 3 hrs
[16] = Batch 2, day-0 luminescence = 229312 ± 17487

Row | SMILES | Assay 7: H2O2-resistant, at 10 uM, validated by propidium iodide (PI) cell-death imaging (WI-38 cells [1]; 10 uM) | cytotoxicity at 10 µM (WI-38 cells [1]; [6]) | fold induction at 10 µM (WI-38 cells [2]; [7]) | fold induction at 10 µM (WI-38 cells [2]; [8]) | B = MMS resistant (WI-38 cells [2]; [9]) | B = MMS resistant (WI-38 cells [2]; summary score) | D = Triple resistant (WI-38 cells [2]; summary score) | G = mTOR down-regulation (mTOR; 2-point score) | G = mTOR down-regulation (mTOR; summary score) | O = Potential toxicity (WI-38 cells [3]; human, 5 days) | Q = Potential toxicity (WI-38 cells [3]; human, 5 days) | H2O2-resistant (WI-38 cells [5]; [11]) | Assay 1: H2O2-resistant (WI-38 cells [5]) | H2O2-resistant (WI-38 cells [5]; [12]) | EC50 (WI-38 cells [5]; [13]) | EC50 (WI-38 cells [5]; [14]) | cytotoxicity at 10 µM (WI-38 cells [1]; [15]) | Percentage of propidium iodide-positive dead cells (no H2O2 stress treatment), at 10 uM (WI-38 cells [4]) | No H2O2 stress treatment, at 10 uM (fold change) (WI-38 cells [5]; WI-38 cells) | other results
1 | O=C(Nc1ccc(Cl)c(Cl)c1)c1ccc([N+](=O)[O-])o1 [Gr-1G] | YES | 34.4% | 1.32 | 1.89 | 0 | 0 | 0 | 0 | 0 | 1 | 0 | YES | YES | YES | 4.8 µM | 2.95 µM | – | – | – | Luminescence signal for ATP measurement, day-1 Average (WI-38 cells [3]; [10]): 449436; Luminescence signal for ATP measurement, day-2 Average (WI-38 cells [3]; [10]): 530748; Luminescence signal for ATP measurement, day-3 Average (WI-38 cells [3]; [10]): 651695; Luminescence signal for ATP measurement, day-4 Average (WI-38 cells [3]; [10]): 866631; Luminescence signal for ATP measurement, day-5 Average (WI-38 cells [3]; [10]): 955703; viability at 10 µM (WI-38 cells [3]; Batch 1): 93.1%; PI cell-death imaging without H2O2 (indicating potential toxicity) (WI-38 cells [4]; Assay 8(k), without H2O2, at 10 uM): YES; PI-positive dead cells under normal conditions (WI-38 cells [4]; WI-38, no H2O2, control 0.4±0.2%): 7.1%±1.1%
2 | O=[N+]([O-])c1ccccc1S(=O)(=O)Nc1cccc2cccnc12 [Gr-3A] | YES | 12.4% | 1 | 0.86 | 0 | 1 | 2 | 0 | 0 | 0 | 0 | YES | YES | YES | 11.2 µM | 4.21 µM | 5.54% | 0.54% ± 0.16%, | 0.98 fold change | Assay 3: MMS-resistant (WI-38 cells [2]; YES/NO, * indicates partial): YES; Assay 5: Triple resistant (WI-38 cells [2]; YES/NO, H2O2, cadmium and MMS): YES; Reduction of ATP content after 5 days of continuous incubation (WI-38 cells [3]; human, 5 days): more than 40%
3 | Cc1ccc(S(=O)(=O)Nc2cccc3cccnc23)cc1 [Gr-3B] | YES | 2.6% | 1.72 | 1.33 | 0 | 0 | 0 | 0 | 0 | 0 | 1 | YES | – | YES | 8.5 µM | 4.24 µM | 4.63% | 0.47% ± 0.20%, | 0.90 fold change | Luminescence signal for ATP measurement, day-1 Average (WI-38 cells [3]; [16]): 184710; Luminescence signal for ATP measurement, day-2 Average (WI-38 cells [3]; [16]): 110226; Luminescence signal for ATP measurement, day-3 Average (WI-38 cells [3]; [16]): 109008; Luminescence signal for ATP measurement, day-4 Average (WI-38 cells [3]; [16]): 52193; Luminescence signal for ATP measurement, day-5 Average (WI-38 cells [3]; [16]): 63138; viability at 10 µM (WI-38 cells [3]; Batch 2): 11.4%

From patent publication US11413278B2, “Compounds and methods for promoting stress resistance” (priority 2015, dated 2022)
